According to patent US11186551B2, “Composition of scalable thyrointegrin antagonists with improved retention in tumors” (NanoPharmaceuticals, LLC, priority 2020, dated 2021):
“Also recorded” adds a separate entry of the source.

What was measured:
[1] = test system: U87-luc xenografts; assay: GBM xenograft efficacy: tumor weight and luminescent signal intensity; assay type: in vivo, Nude mice; details: for Tumor weight after 3 weeks of treatment: control approximately 600 mg; for Luminescent signal intensity after 3 weeks of treatment: control approximately 600,000p/s
Method: The efficacy of these compounds/compositions with respect to GBM tumors will now be described with reference to FIGS. 30-33. The study protocol is as follows: Nude mice having U87-luc xenografts were treated with varying dosages of Compound 2 (fb-PMT) for 3 weeks. Efficacy was determined by tumor weight and luminescent signal intensity compared with a control group. Further, treatment efficacy was also evaluated in comparison with known potential treatment Cilengitide. Efficacy was also determined again after an additional 3 week period with no additional treatment.

[2] = test system: angiogenesis induced by bFGF, VEGF, HGF; assay: Anti-angiogenic effect in CAM Models in the presence of growth factors; assay type: in vivo
Source text: In addition to good initial uptake, the disclosed compounds also have good anti-angiogenic effect. […] Specifically, Compound 2 is effective at reducing the percentage of angiogenesis present in CAM Models, when administered in the presence of the following growth factors: bFGF, VEGF, VEGF+bFGF, and bFGF+VEGF+HGF.
This broad spectrum anti-angiogenic effect is in contrast to existing therapeutic compounds/compositions such as AVASTIN® (bevacizumab).

[3] = mouse, in vivo, sc, 10 mg/kg
Method: Concentrations are shown as recorded 3 h following administration.
Each group contained 4 mice.

[4] = mouse, in vivo, sc, 10 mg/kg; remark: listed apart in the source
Method: Again, a single subcutaneous injection was used in mice. The administered dose was 10 mg/Kg.

[5] = cynomolgus monkey, in vivo, sc, 15 mg/kg
[6] = Compound 2 6 mg/kg, Cilengitide 75 mg/kg
[7] = Compound 2 6 mg/kg, Cilengitide 75 mg/kg, control approximately 750 mg
[8] = Compound 2 6 mg/kg, Cilengitide 75 mg/kg, control over 800,000p/s

Compound | Tumor weight after 3 weeks of treatment [1, 6] | Tumor weight after 3 weeks of treatment followed by 3 weeks without treatment [1, 7] | Luminescent signal intensity after 3 weeks of treatment [1, 6] | Luminescent signal intensity after 3 weeks of treatment followed by 3 weeks without treatment [1, 8] | Average Brain Concentration (ng/g), 3 hour [3] [ng/g] | further results
CC(C)[C@H]1C(=O)N[C@@H](CCCN=C(N)N)C(=O)NCC(=O)N[C@@H](CC(=O)O)C(=O)N[C@H](Cc2ccccc2)C(=O)N1C [Cilengitide, reference compound] | approximately 300 mg | over 400 mg | approximately 300,000 p/s | over 500,000 p/s |  | 
bevacizumab [AVASTIN®] |  |  |  |  |  | Anti-angiogenic effect in CAM Model against VEGF alone ([2]; VEGF alone): primarily effective against VEGF alone; Percent of angiogenesis in CAM Model for bFGF or HGF ([2]; bFGF or HGF): does not meaningfully reduce; Anti-angiogenic effect in CAM Model, VEGF combined with other growth factors ([2]; bFGF or bFGF and HGF present along with VEGF): does not demonstrate good effect
di-tbutylbenzyl conjugated to triazole tetrac by polyethylene glycol [Compound 4] |  |  |  |  | 922 | 
fluorobenzyl conjugated to triazole tetrac by polyethylene glycol [Compound 2] | under 50 mg | further reduction | negligible levels | even further reduction | 228 | Percentage of angiogenesis in CAM Model ([2]; 1.0 μg, growth factors bFGF, VEGF, VEGF+bFGF, bFGF+VEGF+HGF): only slightly above baseline; also recorded: inhibition of angiogenesis against all three growth factors, both alone and in combination; Brain tissue uptake and retention over time [4]: uptake and retention over a 24 hour period; Time of plasma concentration peak [5]: 1 to 4 h; Tumor weight after 3 weeks of treatment ([1]; all doses 1, 3, 6 and 10 mg/kg): under 100 mg; Tumor weight after 3 weeks of treatment followed by 3 weeks off treatment ([1]; all doses 1, 3, 6 and 10 mg/kg, control approximately 750 mg): further and additional reduction; Luminescent signal intensity after 3 weeks of treatment ([1]; all doses 1, 3, 6 and 10 mg/kg): under 100,000 p/s; Luminescent signal intensity after 3 weeks of treatment followed by 3 weeks off treatment ([1]; all doses 1, 3, 6 and 10 mg/kg, control over 800,000p/s): further and additional reduction
